# Tested on: 8×TBD luciferase reporter (YAP) in HEK293T cells
# Test: YAP Reporter Assay (8×TBD firefly luciferase reporter)
# Format: cell-based
# Conditions: Homo sapiens, HEK-293T; HEK293T cells stably transfected with 8×TBD luciferase reporter and pRLTK; 24-hr incubation; firefly luciferase activity; read-out: Firefly Luciferase IC50
# Experimental: HEK293T cells stably transfected with 8×TBD luciferase reporter and pRLTK in 384-well plates were treated with the test compounds, starting from 3 μM (final concentration in assay plate), 1:3 dilution, and 10 points in quadruplicates. Post 24-hr incubation with compounds at 37° C. and 5% CO2, cells were lysed and 8×TBD-driven firefly luciferase and control TK-driven renilla luciferase activities were measured using Promega Dual-Luciferase Reporter Assay System.
# Reagents: The reagents used for this study are: DMEM: Invitrogen #11960077, Dual-Glo Luciferase Assay System: Promega-E2980, Puromycin Dihydrochloride: Invitrogen-A1113803, 384-well plate: PerkinElmer-6007480, L-GLUTAMINE: Invitrogen-25030164, Hygromycin B: Invitrogen-10687010, and Penicillin-Streptomycin: Merk-TMS-AB2-C
# Media: The media used for this assay were: Culture Medium: DMEM+1 ug/mL puromycin+200 ug/mL hygromycin (with 10% FBS+1 mM L-glutamine); and Assay Medium: DMEM (with 10% FBS+1 mM L-glutamine+1×P/S).
# Cell Plating: The appropriate media was warmed at 37° C. by water bath: Culture Medium, Assay Medium, 1*D-PBS, 0.05% trypsin-EDTA. The cells were trypsinized after removing all media, then washed with 1*sterile D-PBS and then with 2 ml 0.05% trypsin-EDTA. The cells were then incubated at RT for one minute. Then 10 ml/75 cm2 flask Assay Medium was added to each flask. Using a 10 ml pipette, the cells were then gently resuspended in the media, until the clumps completely disappeared. The cells were then transferred into 50 ml centrifuge tubes and were centrifuged at 800 rpm for 5 mins. The medium was removed and the cells were resuspended with Assay Medium. An aliquot of cells was used to count the cell density (cells/ml). The cell suspension was then diluted with Assay Medium to a concentration of 6×10^4 cells/ml. 50 ul cells suspension was then plated to 384-well plate (PerkinElmer-6007480), 3×10^3 cells/well and the cells were incubated in an incubator at 37° C., 5% CO2.
# Compound Treatment: In the afternoon (incubation of the plate with 3-4 hrs), the test compounds were added by Echo, starting from 3 uM (final concentration in the assay plate), 1:3 dilution, 10 points, quadruplicates. The plate was placed at 37° C., 5% CO2 incubator for 24 hrs.
# Detection: The Dual-Glo Luciferase Reagent was prepared by transferring the contents of one bottle of Dual-Glo Luciferase Buffer to one bottle of Dual-Glo Luciferase Substrate to create the Dual-Glo Luciferase Reagent. Mixing was performed by inversion until the substrate was thoroughly dissolved. After mixing, the reagent was aliquoted into 15 ml tubes. In the afternoon (24 hrs post compound treatment), the DMEM+medium in the 384 well plates were aspirated by Microplate Washer.
# Measuring firefly luciferase activity: 20 ul Dual-Glo Luciferase Reagent was added to the 384-well plates. The plates were protected from light to prevent interference with the assay. The plates were shaken for 1 min followed centrifuging plates at 1000 rpm for 30 seconds. After waiting at least 10 minutes, the firefly luminescence was measured by Envision.
# Measuring renilla luciferase activity: 20 ul Stop-Glo Reagent was added to the 384-well plates. The plates were shaken for 1 min and then centrifuged at 1000 rpm for 30 seconds. After waiting at least 10 minutes, the renilla luminescence was measured by Envision.
# Compound IC50 and maximum inhibition on the firefly luciferase and renilla luciferase activities were reported separately.
row,Compound,IC50 [nM]
1,"C[C@@H](NC(=O)c1ccc2c(Oc3ccc(C(F)(F)F)cc3)cccc2c1)c1cccc(N)n1 [Compound 66, (R)—N-(1-(6-aminopyridin-2-yl)ethyl)-5-(4-(trifluoromethyl)phenoxy)-2-naphthamide]",< 100
2,"CC(C)NC(=O)c1ccc2c(Oc3ccc(C(F)(F)F)cc3)ccnc2c1 [Compound 67, N-isopropyl-4-(4-(trifluoromethyl)phenoxy)quinoline-7-carboxamide]",100 to 1000
3,"C[C@@H](NC(=O)c1ccc2c(Oc3ccc(C(F)(F)F)cc3)cccc2c1)c1nccn1C [Compound 68, (R)—N-(1-(1-methyl-1H-imidazol-2-yl)ethyl)-5-(4-(trifluoromethyl)phenoxy)-2-naphthamide]",100 to 1000
4,"C[C@H](NC(=O)c1ccc2c(Oc3ccc(C(F)(F)F)cc3)cccc2c1)c1nccn1C [Compound 69, (S)—N-(1-(1-methyl-1H-imidazol-2-yl)ethyl)-5-(4-(trifluoromethyl)phenoxy)-2-naphthamide]",100 to 1000
5,"CC(C)NC(=O)c1ccc2c(Oc3ccc(C(F)(F)F)cc3)cccc2n1 [Compound 70, N-Isopropyl-5-(4-(trifluoromethyl)phenoxy)quinoline-2-carboxamide]",< 100
6,"C[C@H](NC(=O)c1ccc2c(Oc3ccc(C(F)(F)F)cc3)cccc2c1)c1cc(N)ccn1 [Compound 71, (S)—N-(1-(4-aminopyridin-2-yl)ethyl)-5-(4-(trifluoromethyl)phenoxy)-2-naphthamide]",100 to 1000
7,"C[C@@H](NC(=O)c1ccc2c(Oc3ccc(C(F)(F)F)cc3)cccc2c1)c1cc(N)ccn1 [Compound 72, (R)—N-(1-(4-aminopyridin-2-yl)ethyl)-5-(4-(trifluoromethyl)phenoxy)-2-naphthamide]",< 100
8,"C[C@H](NC(=O)c1ccc2c(Oc3ccc(C(F)(F)F)cc3)cccc2c1)c1cc(N(C)C)ccn1 [Compound 73, (S)—N-(1-(4-(dimethylamino)pyridin-2-yl)ethyl)-5-(4-(trifluoromethyl)phenoxy)-2-naphthamide]",100 to 1000
9,"C[C@@H](NC(=O)c1ccc2c(Oc3ccc(C(F)(F)F)cc3)cccc2c1)c1cc(N(C)C)ccn1 [Compound 74, (R)—N-(1-(4-(dimethylamino)pyridin-2-yl)ethyl)-5-(4-(trifluoromethyl)phenoxy)-2-naphthamide]",1000 to 3000
10,"CC(NC(=O)c1ccc2c(Oc3ccc(C(F)(F)F)cc3)cccc2c1)c1cc(Br)ccn1 (stereo not shown) [Compound 75, N-(1-(4-bromopyridin-2-yl)ethyl)-5-(4-(trifluoromethyl)phenoxy)-2-naphthamide]",< 100
11,"C[C@H](NC(=O)c1ccc2c(Oc3ccc(C(F)(F)F)cc3)cccc2c1)c1cccc(N(C)C)n1 [Compound 76, (S)—N-(1-(6-(dimethylamino)pyridin-2-yl)ethyl)-5-(4-(trifluoromethyl)phenoxy)-2-naphthamide]",100 to 1000
12,"C[C@@H](NC(=O)c1ccc2c(Oc3ccc(C(F)(F)F)cc3)cccc2c1)c1cccc(N(C)C)n1 [Compound 77, (R)—N-(1-(6-(dimethylamino)pyridin-2-yl)ethyl)-5-(4-(trifluoromethyl)phenoxy)-2-naphthamide]",< 100
13,"C[C@H](NC(=O)c1ccc2c(Oc3ccc(C(F)(F)F)cc3)cccc2c1)c1cccnc1N [Compound 78, (S)—N-(1-(2-aminopyridin-3-yl)ethyl)-5-(4-(trifluoromethyl)phenoxy)-2-naphthamide]",< 100
14,"C[C@@H](NC(=O)c1ccc2c(Oc3ccc(C(F)(F)F)cc3)cccc2c1)c1cccnc1N [Compound 79, (R)—N-(1-(2-aminopyridin-3-yl)ethyl)-5-(4-(trifluoromethyl)phenoxy)-2-naphthamide]",1000 to 3000
15,"O=C(NC(CO)Cc1ccccn1)c1ccc2c(Oc3ccc(C(F)(F)F)cc3)cccc2c1 (stereo not shown) [Compound 80, N-[1-(hydroxymethyl)-2-(2-pyridyl)ethyl]-5-[4-(trifluoromethyl)phenoxy]naphthalene-2-carboxamide]",< 100
16,"CC(C)NC(=O)c1cnc2c(Oc3ccc(C(F)(F)F)cc3)cc(F)c(F)c2c1 [Compound 81, 5,6-difluoro-N-isopropyl-8-(4-(trifluoromethyl)phenoxy)quinoline-3-carboxamide]",< 100
17,"C[C@H](NC(=O)c1ccc2c(Oc3ccc(C(F)(F)F)cc3)cccc2c1)c1ccccc1Cl [Compound 83, (S)—N-(1-(2-chlorophenyl)ethyl)-5-(4-(trifluoromethyl)phenoxy)-2-naphthamide]",< 100
18,"CC(C)NC(=O)c1ccc2c(Oc3ccc(C(F)(F)F)cc3F)cccc2c1 [Compound 84, 5-(2-fluoro-4-(trifluoromethyl)phenoxy)-N-isopropyl-2-naphthamide]",< 100
19,"CC(C)NC(=O)c1ccc2c(Oc3ccc(C(F)(F)F)cc3Cl)cccc2c1 [Compound 85, 5-(2-chloro-4-(trifluoromethyl)phenoxy)-N-isopropyl-2-naphthamide]",< 100
20,"N#CNC(=O)c1ccc2c(Oc3ccc(C(F)(F)F)cc3)cccc2c1 [Compound 86, N-cyano-5-[4-(trifluoromethyl)phenoxy]naphthalene-2-carboxamide]",100 to 1000
21,"C[C@@H](NC(=O)c1ccc2c(Oc3ccc(C(F)(F)F)cc3)cccc2c1)c1cccc2cn[nH]c12 [Compound 87, N-[(1R)-1-(1H-indazol-7-yl)ethyl]-5-[4-(trifluoromethyl)phenoxy]naphthalene-2-carboxamide]",< 100
22,"CC#C[C@H](C)NC(=O)c1ccc2c(Oc3ccc(C(F)(F)F)cc3)cccc2c1 [Compound 89, N-[(1S)-1-methylbut-2-ynyl]-5-[4-(trifluoromethyl)phenoxy]naphthalene-2-carboxamide]",< 100
23,"CC#C[C@@H](C)NC(=O)c1ccc2c(Oc3ccc(C(F)(F)F)cc3)cccc2c1 [Compound 90, N-[(1R)-1-methylbut-2-ynyl]-5-[4-(trifluoromethyl)phenoxy]naphthalene-2-carboxamide]",< 100
24,"C[C@@H](NC(=O)c1ccc2c(Oc3ccc(C(F)(F)F)cc3)cccc2c1)c1cn(C)cn1 [Compound 91, N-[(1R)-1-(1-methylimidazol-4-yl)ethyl]-5-[4-(trifluoromethyl)phenoxy]naphthalene-2-carboxamide]",< 100
25,"C[C@H](NC(=O)c1ccc2c(Oc3ccc(C(F)(F)F)cc3)cccc2c1)c1cn(C)cn1 [Compound 92, N-[(1S)-1-(1-methylimidazol-4-yl)ethyl]-5-[4-(trifluoromethyl)phenoxy]naphthalene-2-carboxamide]",100 to 1000
26,"CC(C)NC(=O)c1ccc2c(Oc3ccc(C(F)(F)F)cc3)cncc2c1 [Compound 93, N-isopropyl-4-(4-(trifluoromethyl)phenoxy)isoquinoline-7-carboxamide]",< 100
27,"O=C(NC(CCO)c1ccccn1)c1ccc2c(Oc3ccc(C(F)(F)F)cc3)cccc2c1 (stereo not shown) [Compound 94, N-(3-hydroxy-1-(pyridin-2-yl)propyl)-5-(4-(trifluoromethyl)phenoxy)-2-naphthamide]",< 100
28,"C[C@H](NC(=O)c1ccc2c(Oc3ccc(C(F)(F)F)cc3)cccc2c1)C1CNC1 [Compound 95, N-[(1S)-1-(azetidin-3-yl)ethyl]-5-[4-(trifluoromethyl)phenoxy]naphthalene-2-carboxamide]",< 100
